# Source: article PMC6127852 (Journal of Enzyme Inhibition and Medicinal Chemistry, 2018)
# Experiments:
# calf thymus ctDNA = test: UV–Vis titration with ctDNA (Scatchard); assay type: binding; details: PBS, pH 7; for Hypochromic effect H/%, ctDNA: UV–Vis titration, calculated by Scatchard equation; for log Ks, ctDNA: binding constant, Scatchard
# Protocol: (§1) Polynucleotides were purchased as follows: polyG–polyC, polyA–polyU (Sigma-Aldrich, St. Louis, MO), calf thymus ctDNA (Aldrich). Polynucleotides were dissolved in PBS buffer, I = 0.05 mol dm^−3, pH 7.0. The calf thymus ctDNA was additionally sonicated and filtered through a […] filter. The polynucleotide concentration was spectroscopically determined as the concentration of nucleobases.
# (§2) All UV–Vis absorbance measurements were conducted on a Perkin Elmer Lambda 25 spectrophotometer (Perkin Elmer, Waltham, MA). A quartz cell with a 1 cm path length was used for all absorbance studies. Compound stock solutions were 1 mM. The DNA/RNA at increasing ratios was then titrated into the compound buffer solution (1.48 × 10^−5 mol dm^−3) and the corresponding absorption spectra were recorded under the same conditions. All data were graphed and analysed using Origin software version 9.0 (OriginLab Corporation, Northampton, MA). The stability constants (Ks) and [bound compound]/[polynucleotide phosphate] ratios (n) were calculated according to the Scatchard Equation[63] ^, [64]. Values for Ks and n given in Table 1 all have satisfying correlation coefficients (0.99).
# (§3) The binding constants logKs and the density of the binding sites n were calculated using Scatchard plot analysis. In addition, the binding constants Ks for compounds 8b and 8e were calculated only for titration data taken at the r ≥ 0.1, because below that ratio changes in absorption maxima were too small for accurate calculation (ΔA ≤ 0.04) (Table 1). The binding constants Ks and ratios n obtained by processing UV–Vis titration data using the Scatchard equation are summarised in Table 1.
# polyA-polyU [1] = test: UV–Vis titration with polyA-polyU (Scatchard); assay type: binding; details: for log Ks, polyA-polyU: binding constant, Scatchard
# Protocol: as §1, §2, §3
# polyC-polyG = test: UV–Vis titration with polyC-polyG (Scatchard); assay type: binding; details: PBS, pH 7; for Hypochromic effect H/%, polyC-polyG: UV–Vis titration, calculated by Scatchard equation; for log Ks, polyC-polyG: binding constant, Scatchard
# Protocol: as §1, §2, §3
# ctDNA = test: Thermal melting (ΔTm) of ctDNA; assay type: binding, calf; details: PBS, pH 7; for ΔTm, ctDNA, r = 0.3: r = [compound]/[polynucleotide] 0.3, error ±0.5 °C
# Protocol: (§4) T m experiments were conducted with a Perkin Elmer Lambda 25 spectrophotometer in 1 cm quartz cuvettes. The absorbance of the DNA/RNA-compound complex was monitored at 260 nm as a function of temperature. The absorbance of the ligands was subtracted from every curve, and the absorbance scale was normalised. The ΔT m values were calculated by subtracting T m of the free nucleic acid from T m of the complex. Every reported ΔT m value was the average of at least two measurements. The error of ΔT m is ±0.5 °C. All data were graphed and analysed using Origin software version 9.0.
# (§5) Denaturation experiments were carried out at different amounts of the compounds (r = 0.1, 0.3, 0.5, and 0.7 eq; r = [compound]/[polynucleotide]) with ctDNA and polyA-polyU.
# polyA-polyU [2] = test: Thermal melting (ΔTm) of polyA-polyU; assay type: binding; details: for ΔTm, polyA-polyU, r = 0.1: PBS, pH 7
# Protocol: as §4, §5
# S. aureus MRSA = test: Broth microdilution MIC, MRSA clinical strain; assay type: cell-based; details: Staphylococcus aureus, antibiotic-resistant clinical strain
# Protocol: (§6) The compounds were evaluated for their in vitro anti-bacterial activity against Gram-positive bacteria: S. aureus (ATCC 25923), MRSA, methicillin-sensitive S. aureus (MSSA), E. faecalis, vancomycin-resistant E. faecium (VREF), and Gram-negative bacteria: E. coli (ATCC 25925), P. aeruginosa (ATCC 27853), A. baumannii (ATCC 19606) and ESBL-producing K. pneumoniae (ATCC 27736). Standard broth microdilution method as recommended in guidelines of Clinical and Laboratory Standards Institute[61] ^, [65] ^, [66] was applied and the minimum inhibitory concentration (MIC) of compounds was tested. In short, testing was performed in U-bottomed 96-well sterile plastic microdilution trays (Falcon 3077, Becton Dickinson Labware, Franklin Lakes, NJ) in cation (Ca^2+ and Mg^2+) adjusted Mueller–Hinton broth medium (Becton Dickinson and Co., Cockeysville, MD). All testings were performed in triplicate.
# S. aureus MSSA = test: Broth microdilution MIC, MSSA clinical strain; assay type: cell-based; details: Staphylococcus aureus
# Protocol: as §6
# E. faecium VRE = test: Broth microdilution MIC, VRE clinical strain; assay type: cell-based; details: Enterococcus faecium
# Protocol: as §6
# S. aureus ATCC 25923 = test: Broth microdilution MIC, S. aureus ATCC 25923; assay type: cell-based; details: Staphylococcus aureus, ATCC25923; Table S2
# Protocol: as §6
# (§7) The in vitro anti-bacterial activity of 5-amidinobenzimidazoles 7a–7e, 8a–8e, and 9a–9e was tested against Gram-positive bacteria including S. aureus (ATCC 25923), Enterococcus faecalis (ATCC 29212), and Gram-negative bacteria including E. coli (ATCC 25925), K. pneumoniae (ATCC 700803), P. aeruginosa (ATCC 27853), and Acinetobacter baumannii (ATCC 19606).
# E. faecalis ATCC 29212 = test: Broth microdilution MIC, E. faecalis ATCC 29212; assay type: cell-based; details: Enterococcus faecalis, ATCC29212; Table S2
# Protocol: as §6, §7
# E. coli ATCC 25925 = test: Broth microdilution MIC, E. coli ATCC 25925; assay type: cell-based; details: Escherichia coli, ATCC25925; Table S2
# Protocol: as §6, §7
# K. pneumonia ATCC 700803 = test: Broth microdilution MIC, K. pneumoniae ATCC 700803; assay type: cell-based; details: Klebsiella pneumoniae, ATCC700803; Table S2
# Protocol: as §6, §7
# P. aeruginosa ATCC 27853 = test: Broth microdilution MIC, P. aeruginosa ATCC 27853; assay type: cell-based; details: Pseudomonas aeruginosa, ATCC27853; Table S2
# Protocol: as §6, §7
# A. baumannii ATCC 19606 = test: Broth microdilution MIC, A. baumannii ATCC 19606; assay type: cell-based; details: Acinetobacter baumannii, ATCC19606; Table S2
# Protocol: as §6, §7
# [3] = system: bloodstream form T. brucei (strain 221); test: Anti-trypanosomal screening, resazurin; assay type: cell-based; details: Trypanosoma brucei, mean of triplicate ± SEM
# Protocol: Bloodstream form T. brucei (strain 221) were cultured in modified Iscove’s medium, as outlined[67] and trypanocidal assays were performed using 96-well microtitre plates. […] Resazurin was added after 48 h, the plates incubated for a further 16 h, and then read in a Spectramax plate reader (Molecular Devices Corporation, San Jose, CA). The data were analysed using GraphPad Prism (GraphPad, La Jolla, CA). Each drug concentration was tested in triplicate.
# [4] = system: polyA-polyU (RNA, polymer) A/U; test: UV melting at 260 nm; details: PBS, I = 0.05 M, cations not specified, pH 7, r = 0.3 [compound]/[polynucleotide], error ±0.5, biphasic
# [5] = system: polyA-polyU (RNA, polymer) A/U; test: UV-Vis titration, Scatchard; details: PBS, I = 0.05 M (Table 1 says I = 0.015 M), cations not specified, I = 0.015 M (Methods: 0.05 M)
# [6] = system: polyG-polyC (polyC-polyG) (RNA, polymer) G/C; test: UV-Vis titration, Scatchard; details: PBS, I = 0.05 M (Table 1 says I = 0.015 M), cations not specified, I = 0.015 M (Methods: 0.05 M), pH 7, per base
# E. coli ESBL = test: Broth microdilution MIC, ESBL E. coli clinical strain; assay type: cell-based; details: Escherichia coli
# P. aeruginosa ESBL = test: Broth microdilution MIC, ESBL P. aeruginosa clinical strain; assay type: cell-based; details: Pseudomonas aeruginosa
# [7] = footnote c: biphasic melting curve
Compound,"Hypochromic effect H/%, ctDNA (calf thymus ctDNA) [%]","log Ks, ctDNA (calf thymus ctDNA)","log Ks, polyA-polyU (polyA-polyU [1]; PBS, pH 7)","Hypochromic effect H/%, polyC-polyG (polyC-polyG) [%]","log Ks, polyC-polyG (polyC-polyG)","ΔTm, ctDNA, r = 0.5 (ctDNA) [°C]","ΔTm, ctDNA, r = 0.7 (ctDNA) [°C]","ΔTm, ctDNA, r = 0.3 (ctDNA) [°C]","ΔTm, polyA-polyU, r = 0.1 (polyA-polyU [2]) [°C]","ΔTm, polyA-polyU, r = 0.3 (polyA-polyU [2]; first melting midpoint) [°C]","ΔTm, polyA-polyU, r = 0.3, second melting midpoint (polyA-polyU [2]; [7])",MIC (S. aureus MRSA) [µg/mL],MIC (S. aureus MSSA) [µg/mL],MIC (E. faecium VRE) [µg/mL],MIC (S. aureus ATCC 25923) [µg/mL],MIC (E. faecalis ATCC 29212) [µg/mL],MIC (E. coli ATCC 25925) [µg/mL],MIC (K. pneumonia ATCC 700803) [µg/mL],MIC (P. aeruginosa ATCC 27853) [µg/mL],MIC (A. baumannii ATCC 19606) [µg/mL],also measured
"Cl.Cl.Clc1ccccc1-n1cc(COc2ccc(-c3nc4cc(C5=NCCN5)ccc4[nH]3)cc2)nn1 [Compound 9c, 5–(4,5-Dihydro-1H-imidazol-2-yl)-2–(4-((1–(2-chlorophenyl)-1H-1,2,3-triazol-4-yl)methoxy)phenyl)-1H-benz[d]imidazole dihydrochloride]",11.7,6.43,5.38,5.34,6.43,3.31,3.80,3.55,2.85,4.27,13.99 °C,8,128,64,128,32,256,> 256,> 256,> 256,"Hypochromic effect H/%, polyA-polyU (polyA-polyU [1]; UV–Vis titration, PBS, pH 7, calculated by Scatchard equation): 29.3%; IC50 [3]: > 15 µM; melting point: 194 to 196 °C; ΔTm ([4]; second midpoint 13.99, per base): 4.27 °C; log Ks ([5]; pH 7, per base): 5.38; log Ks [6]: 6.43"
c1ccc(Cn2cc(COc3ccc(-c4nc5cc(C6=NCCN6)ccc5[nH]4)cc3)nn2)cc1 [Compound 9d],24.6,5.84,5.89,5.89,6.59,3.52,2.60,3.31,1.26,1.42,10.30^c °C,64,64,64,64,128,128,> 256,128,> 256,"Hypochromic effect H/%, polyA-polyU (from experimental data) (polyA-polyU [1]; footnote e: calculated from experimental data): 55.5 ^e %; ΔTm, polyA-polyU, r = 0.5 (polyA-polyU [2]; r = 0.5, first melting midpoint): 2.06 °C; ΔTm, polyA-polyU, r = 0.5, second melting midpoint (polyA-polyU [2]; r = 0.5, footnote c: biphasic melting curve): 13.29^c °C; MIC (E. coli ESBL): 128 µg/mL; MIC (P. aeruginosa ESBL): 128 µg/mL; IC50 [3]: 10.8 ± 0.4 µM; IC90 [3]: > 25 µM; ΔTm ([4]; second midpoint 10.30, per base): 1.42 °C; log Ks ([5]; pH 7, n fixed, per base): 5.89; log Ks [6]: 6.59"
